Test results reported in ChEMBL document CHEMBL1141678 (Eur J Med Chem, 2008).

Assays:
Cytochrome P450 2C9 [1] = molecular target: T1, Cytochrome P450 2C9 (Homo sapiens, UniProt P11712); assay: Inhibition of human recombinant CYP2C9 in presence of reduced glutathione; format: ADME; conditions: recombinant enzyme
Cytochrome P450 2B6 [2] = molecular target: T2, Cytochrome P450 2B6 (Homo sapiens, UniProt P20813); assay: Inhibition of human recombinant CYP2B6 in presence of reduced glutathione; format: ADME; conditions: recombinant enzyme
T2 sequence (P20813 whole entry): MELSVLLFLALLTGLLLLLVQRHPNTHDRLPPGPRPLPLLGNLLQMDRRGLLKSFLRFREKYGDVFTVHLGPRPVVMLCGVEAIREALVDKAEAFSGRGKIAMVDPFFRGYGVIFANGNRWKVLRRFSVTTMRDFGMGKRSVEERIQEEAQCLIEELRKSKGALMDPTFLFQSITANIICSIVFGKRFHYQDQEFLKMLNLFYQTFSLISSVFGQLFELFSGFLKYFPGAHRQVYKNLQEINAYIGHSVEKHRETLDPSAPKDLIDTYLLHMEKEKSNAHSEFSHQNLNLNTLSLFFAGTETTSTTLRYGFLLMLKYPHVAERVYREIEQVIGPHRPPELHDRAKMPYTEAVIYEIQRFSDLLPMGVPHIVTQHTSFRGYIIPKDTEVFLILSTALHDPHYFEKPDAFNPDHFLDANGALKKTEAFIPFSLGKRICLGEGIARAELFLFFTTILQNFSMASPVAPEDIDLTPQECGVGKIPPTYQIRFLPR

Cytochrome P450 3A4 [3] = molecular target: T3, Cytochrome P450 3A4 (Homo sapiens, UniProt P08684); assay: Inhibition of human recombinant CYP3A4 in presence of reduced glutathione; format: ADME; conditions: recombinant enzyme
T3 sequence (P08684 whole entry): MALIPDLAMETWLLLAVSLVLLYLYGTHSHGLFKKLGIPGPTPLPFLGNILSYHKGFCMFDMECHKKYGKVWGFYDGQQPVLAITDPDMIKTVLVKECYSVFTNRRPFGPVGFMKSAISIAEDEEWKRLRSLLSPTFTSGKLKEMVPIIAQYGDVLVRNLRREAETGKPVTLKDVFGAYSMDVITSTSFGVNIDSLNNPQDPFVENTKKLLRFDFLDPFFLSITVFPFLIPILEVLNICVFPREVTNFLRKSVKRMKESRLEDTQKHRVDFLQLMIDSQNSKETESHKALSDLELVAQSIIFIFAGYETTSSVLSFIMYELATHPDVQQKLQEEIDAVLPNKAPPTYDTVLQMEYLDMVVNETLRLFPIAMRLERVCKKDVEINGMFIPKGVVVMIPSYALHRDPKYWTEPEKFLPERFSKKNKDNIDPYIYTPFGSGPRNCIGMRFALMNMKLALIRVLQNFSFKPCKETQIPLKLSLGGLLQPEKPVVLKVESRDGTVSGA

Cytochrome P450 2D6 [4] = molecular target: T4, Cytochrome P450 2D6 (Homo sapiens, UniProt P10635); assay: Inhibition of human recombinant CYP2D6 in presence of reduced glutathione; format: ADME; conditions: recombinant enzyme
T4 sequence (P10635 whole entry): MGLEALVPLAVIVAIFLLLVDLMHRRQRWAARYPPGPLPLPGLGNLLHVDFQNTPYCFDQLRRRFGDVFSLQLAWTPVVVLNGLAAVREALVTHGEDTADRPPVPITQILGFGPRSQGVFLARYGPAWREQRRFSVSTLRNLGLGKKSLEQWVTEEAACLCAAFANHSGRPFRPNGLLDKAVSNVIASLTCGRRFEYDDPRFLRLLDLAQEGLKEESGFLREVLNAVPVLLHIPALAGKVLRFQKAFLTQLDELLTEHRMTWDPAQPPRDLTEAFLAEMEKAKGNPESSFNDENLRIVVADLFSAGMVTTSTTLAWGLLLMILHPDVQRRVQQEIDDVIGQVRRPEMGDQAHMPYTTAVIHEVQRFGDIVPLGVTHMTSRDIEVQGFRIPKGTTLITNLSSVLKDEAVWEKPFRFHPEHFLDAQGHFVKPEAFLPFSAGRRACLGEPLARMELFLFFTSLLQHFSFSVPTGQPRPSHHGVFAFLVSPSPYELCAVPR

Cytochrome P450 3A4 [5] = molecular target: T3, Cytochrome P450 3A4; assay: Inhibition of human recombinant CYP3A4; format: ADME
Cytochrome P450 2C9 [6] = molecular target: T1, Cytochrome P450 2C9; assay: Inhibition of human recombinant CYP2C9; format: ADME
Cytochrome P450 1A2 = molecular target: T5, Cytochrome P450 1A2 (Homo sapiens, UniProt P05177); assay: Inhibition of human recombinant CYP1A2; conditions: for log(1/IC50): human, recombinant CYP1A2
T5 sequence (P05177 whole entry): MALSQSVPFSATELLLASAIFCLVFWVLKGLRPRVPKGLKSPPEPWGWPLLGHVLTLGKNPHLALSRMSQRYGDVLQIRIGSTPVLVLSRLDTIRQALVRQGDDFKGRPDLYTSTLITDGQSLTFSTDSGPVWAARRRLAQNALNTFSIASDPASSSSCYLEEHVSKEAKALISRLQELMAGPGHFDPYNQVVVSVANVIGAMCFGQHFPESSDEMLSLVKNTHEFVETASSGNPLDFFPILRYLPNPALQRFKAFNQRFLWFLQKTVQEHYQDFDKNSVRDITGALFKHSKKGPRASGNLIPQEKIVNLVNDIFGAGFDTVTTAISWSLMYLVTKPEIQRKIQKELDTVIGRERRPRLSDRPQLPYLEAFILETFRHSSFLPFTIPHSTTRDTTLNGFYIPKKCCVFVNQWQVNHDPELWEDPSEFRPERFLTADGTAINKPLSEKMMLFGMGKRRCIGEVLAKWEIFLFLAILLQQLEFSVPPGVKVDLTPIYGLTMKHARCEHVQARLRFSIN

Cytochrome P450 3A4 [7] = molecular target: T3, Cytochrome P450 3A4; assay: Inhibition of human recombinant CYP3A4 at 100 uM; format: ADME; conditions: recombinant enzyme
Cytochrome P450 2D6 [8] = molecular target: T4, Cytochrome P450 2D6; assay: Inhibition of human recombinant CYP2D6 at 100 uM; format: ADME; conditions: recombinant enzyme
Cytochrome P450 2B6 [9] = molecular target: T2, Cytochrome P450 2B6; assay: Inhibition of human recombinant CYP2B6 at 100 uM; format: ADME; conditions: recombinant enzyme
Cytochrome P450 2D6 [10] = molecular target: T4, Cytochrome P450 2D6; assay: Inhibition of human recombinant CYP2D6; format: ADME

T1 sequence (P11712 whole entry): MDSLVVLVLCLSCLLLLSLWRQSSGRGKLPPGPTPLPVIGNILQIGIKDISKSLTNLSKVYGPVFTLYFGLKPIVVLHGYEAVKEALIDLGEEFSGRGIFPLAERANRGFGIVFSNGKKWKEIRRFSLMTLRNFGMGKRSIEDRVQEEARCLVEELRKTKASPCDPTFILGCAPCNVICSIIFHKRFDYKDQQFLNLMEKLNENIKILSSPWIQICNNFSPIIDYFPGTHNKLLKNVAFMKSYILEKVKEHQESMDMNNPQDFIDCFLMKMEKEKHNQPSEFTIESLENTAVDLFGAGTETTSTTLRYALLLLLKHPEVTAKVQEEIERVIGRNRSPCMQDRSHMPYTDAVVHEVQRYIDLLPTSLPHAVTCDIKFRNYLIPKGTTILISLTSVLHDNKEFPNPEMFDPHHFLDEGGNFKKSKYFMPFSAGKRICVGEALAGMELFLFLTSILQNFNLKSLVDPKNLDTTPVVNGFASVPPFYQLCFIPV

SMILES	Activity (Cytochrome P450 2C9 [1])	Activity (Cytochrome P450 2B6 [2])	Activity (Cytochrome P450 3A4 [3])	Activity (Cytochrome P450 2D6 [4])	IC50 (Cytochrome P450 3A4 [5])	IC50 (Cytochrome P450 2C9 [6])	IC50 (Cytochrome P450 1A2)	log(1/IC50) (Cytochrome P450 1A2)	Activity (Cytochrome P450 3A4 [7])	Activity (Cytochrome P450 2D6 [8])	Activity (Cytochrome P450 2B6 [9])	IC50 (Cytochrome P450 2D6 [10])
COc1ccc(/C=C2\CC/C(=C\c3ccc(OC)cc3)C2=O)cc1	Not Active	Not Active	Not Active	Not Active	–	–	–	–	–	–	–	–
COc1cc(/C=C2\CC/C(=C\c3ccc(O)c(OC)c3)C2=O)ccc1O	Not Active	Not Active	Not Active	Not Active	64.9 µM	2.8 µM	38.9 µM	1.41	–	–	–	–
O=C(/C=C/c1ccc(Cl)c(Cl)c1)/C=C/c1ccc(Cl)c(Cl)c1	Not Active	Not Active	Not Active	Not Active	–	–	–	–	–	–	–	–
O=C1/C(=C/c2ccccc2)CC/C1=C\c1ccccc1	Not Active	Not Active	Not Active	Not Active	–	–	36.6 µM	1.437	–	–	–	–
Cc1cc(/C=C2\CC/C(=C\c3cc(C)c(O)c(C)c3)C2=O)cc(C)c1O	Not Active	Not Active	Not Active	Not Active	–	28.3 µM	–	–	–	–	–	–
O=C1/C(=C/c2ccccc2)CCC/C1=C\c1ccccc1 [2,6-DIBENZYLIDENECYCLOHEXANONE]	Not Active	Not Active	Not Active	Not Active	–	–	0.9 µM	3.046	Not Active	Not Active	Not Active	–
O=C1/C(=C/c2ccc(O)cc2)CC/C1=C\c1ccc(O)cc1	Not Active	Not Active	Not Active	Not Active	5.1 µM	9.9 µM	45.6 µM	1.341	–	–	–	–
CC(C)(C)c1cc(/C=C2\CCC/C(=C\c3cc(C(C)(C)C)c(O)c(C(C)(C)C)c3)C2=O)cc(C(C)(C)C)c1O	Not Active	Not Active	Not Active	Not Active	–	–	–	–	Not Active	Not Active	Not Active	–
O=C(/C=C/c1ccc(O)cc1)/C=C/c1ccc(O)cc1	Not Active	Not Active	Not Active	Not Active	–	1.8 µM	–	–	–	–	–	2 µM
CC(C)(C)c1ccc(/C=C/C(=O)/C=C/c2ccc(C(C)(C)C)cc2)cc1	Not Active	Not Active	Not Active	Not Active	–	–	28 µM	1.553	–	–	–	–
Cc1ccc(/C=C/C(=O)/C=C/c2ccc(C)cc2)cc1	Not Active	Not Active	Not Active	Not Active	–	–	–	–	–	–	–	–
O=C1/C(=C/c2cccc(Cl)c2)CCC/C1=C\c1cccc(Cl)c1	Not Active	Not Active	Not Active	Not Active	–	–	3.4 µM	2.469	Not Active	Not Active	Not Active	–
Cc1ccc(/C=C2\CCC/C(=C\c3ccc(C)cc3)C2=O)cc1	Not Active	Not Active	Not Active	Not Active	–	–	21 µM	1.678	Not Active	Not Active	Not Active	–
O=C1/C(=C/c2ccc(Cl)cc2)CC/C1=C\c1ccc(Cl)cc1	Not Active	Not Active	Not Active	Not Active	–	–	–	–	–	–	–	–
